Measurements from ChEMBL document CHEMBL5113385, “Natural products and synthetic analogues against HIV: A perspective to develop new potential anti-HIV drugs” (Eur J Med Chem, 2022).
pEC50, pIC50: −log10 of the molar value.

How the values were obtained:
[1] = tested on: C8166; experiment: Cytotoxicity against human C8166 cells assessed as reduction in cell viability by MTT assay; type: functional
[2] = molecular target: Human immunodeficiency virus type 1 integrase (Human immunodeficiency virus 1, UniProt Q7ZJM1); experiment: Inhibition of recombinant HIV-1 subtype C integrase using double-stranded FITC-labelled target DNA as substrate pre-incubated for 45 mins followed by substrate addition measured after 60 mins by strand transfer inhibition assay
Sequence of Human immunodeficiency virus type 1 integrase (Q7ZJM1 whole entry): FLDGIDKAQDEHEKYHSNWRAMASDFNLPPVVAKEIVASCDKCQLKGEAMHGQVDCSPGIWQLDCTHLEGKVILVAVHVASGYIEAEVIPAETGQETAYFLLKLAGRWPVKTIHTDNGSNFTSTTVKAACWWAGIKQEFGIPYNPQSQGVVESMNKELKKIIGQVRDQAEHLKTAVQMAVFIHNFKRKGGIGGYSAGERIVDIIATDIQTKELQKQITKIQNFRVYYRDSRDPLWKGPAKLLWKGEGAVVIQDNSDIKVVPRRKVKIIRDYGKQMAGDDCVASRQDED

[3] = tested on: Human immunodeficiency virus 1; experiment: Antiviral activity against HIV-1 NL4-3 infected in human TZM-bl cells assessed as viral growth inhibition by luciferase assay; type: functional, organism-based; conditions: Human immunodeficiency virus 1, NL4-3, TZM-bl
[4] = Selectivity index, ratio of IC50 for human 1A2 cells to EC50 for HIV-1 MC99 harboring deltaTat/Rev infected in human 1A2 cells; type: toxicity, cell-based; conditions: read-out: Ratio IC50/EC50
[5] = tested on: Human immunodeficiency virus 1; experiment: Antiviral activity against HIV-1 MC99 harboring deltaTat/Rev infected in human 1A2 cells assessed as reduction in syncytium formation preincubated for 1 hr followed by virus infection measured after 3 days by inverted microscopy; type: functional, organism-based; conditions: Human immunodeficiency virus 1, MC99, 1A2
[6] = tested on: Human immunodeficiency virus 1; experiment: Antiviral activity against HIV-1 NL4-3 infected in human MT4 cells assessed as reduction in viral replication incubated for 48 hrs followed by addition of fresh medium containing compound measured after 2 days by ELISA; type: functional, organism-based; conditions: Human immunodeficiency virus 1, NL4-3, MT4, 48 h
[7] = molecular target: T1, Human immunodeficiency virus type 1 reverse transcriptase (Human immunodeficiency virus 1, UniProt Q72547); experiment: Inhibition of HIV-1 LTR reverse transcriptase infected in human CEM cells using RNA template incubated for 1 hr by RT-PCR based cell-free assay
[8] = tested on: Human immunodeficiency virus 1; experiment: Antiviral activity against HIV-1 infected in PBMC (unknown origin) assessed as viral growth inhibition; type: functional, organism-based; conditions: Human immunodeficiency virus 1, PBMC
[9] = molecular target: Human immunodeficiency virus type 1 protease (Human immunodeficiency virus 1) (UniProt Q72874); experiment: Inhibition of HIV-1 protease relative to control; conditions: concentration not given here
[10] = Inhibition of wild-type HIV-1 BH10 reverse transcriptase-associated RNase H expressed in Escherichia coli using [gamma-32P]ATP-labeled 31Trna/21P as template/primer preincubated for 5 mins followed by template/primer addition by PAGE analysis; design: species or system Human immunodeficiency virus 1
[11] = tested on: Human immunodeficiency virus 1; experiment: Antiviral activity against HIV-1 assessed as viral growth inhibition; type: functional, organism-based
[12] = tested on: Human immunodeficiency virus; experiment: Antiviral activity against HIV infected in human PBMC assessed as inhibition of viral infection at MOI of 0.5 incubated for 48 hrs followed by removal of infected supernatant and subsequent addition of supernatant to human LC-5 cells expressing DsRed1 measured after 72 hrs by EASY-HIT assay; type: functional, organism-based; conditions: Human immunodeficiency virus 1, PBMC
[13] = molecular target: Human immunodeficiency virus type 1 reverse transcriptase (Human immunodeficiency virus 1) (UniProt Q72547); experiment: Inhibition of recombinant HIV-1 reverse transcriptase at 200 ug/ml by ELISA relative to control; conditions: dose 200.0 µg/ml
[14] = tested on: Human immunodeficiency virus 1; experiment: Antiviral activity against HIV-1 infected in human CEM-GFP cells assessed as inhibition of viral replication incubated for 68 hrs by MTT assay; type: functional, organism-based; conditions: Human immunodeficiency virus 1, CEM-GFP
[15] = tested on: Human immunodeficiency virus 1; experiment: Antiviral activity against patient-derived wild-type HIV-1 infected in human CEM-T4 cells assessed as inhibition of viral replication preincubated for 24 hrs followed by viral infection measured after 7 days by ELISA; type: functional, organism-based; conditions: Human immunodeficiency virus 1, CEM-T4
[16] = molecular target: T1, Human immunodeficiency virus type 1 reverse transcriptase; experiment: Inhibition of HIV-1 reverse transcriptase using ABTS as substrate and RNA template primed with oligo(dT)12-18 in presence of digoxigenin/biotin-labeled nucleotides by ELISA

SMILES: C=CC(C)(C)c1cc2cc(C[C@@H](O)C(C)(C)O)c(O)cc2oc1=O
- CC50 [1]: > 200000 nM

SMILES: C=CC(C)(C)c1cc2cc3c(c(CC=C(C)C)c2oc1=O)O[C@H](C(C)(C)O)C3
- CC50 [1]: > 200000 nM

SMILES: C=CC(C)(C)c1cc2cc3c(cc2oc1=O)O[C@H](C(C)(C)O)[C@H]3O
- CC50 [1]: > 200000 nM

SMILES: CC(=O)[C@@H]1Cc2cc3ccc(=O)oc3cc2O1
- CC50 [1]: > 200000 nM

SMILES: COc1cc2c(c(O)c1C)Oc1c(C=O)c(O)cc(C)c1C(=O)O2
- pIC50 [2]: 5.33

SMILES: CCCCCOC(=O)C[C@H](NP(=O)(CO[C@@H](CF)Cn1ccc2c(=O)[nH]c(N)nc21)N[C@@H](CC(=O)OCCCCC)C(=O)OCCCCC)C(=O)OCCCCC
- pIC50 [3]: 5.70

SMILES: COc1cc([C@@H]2CC(=O)c3c(cc(OC)c(OC)c3O)O2)cc(OC)c1OC
- selectivity ratio [4]: 1.12
- pEC50 [5]: 3.77

SMILES: C=C(C)[C@]12C[C@@H](COC(C)=O)[C@@]34OC5(O[C@@H]1[C@@H]3[C@@H]1O[C@]1(CO)[C@@H](O)[C@@]1(O)[C@H]4[C@H]([C@H](C)[C@@H]1C(=O)c1ccccc1)[C@H](C)C[C@H](C(=O)c1ccccc1)[C@H](C(=O)c1ccccc1)CCC[C@H]5O)O2
- pIC50 [6]: ≥ 9.60

SMILES: O=C(OCc1ccccc1)N1OCCC1n1cc(COCc2ccccc2)c(=O)[nH]c1=O (centres undefined)
- pIC50 [7]: 6.00

SMILES: COc1cc(O)c(-c2c(C)cc(O)c3c2Cc2cccc(O)c2C3=O)c(O)c1C(C)=O
- pEC50 [8]: 5.37

SMILES: C=C(C)[C@@H]1CC[C@@H]2[C@]3(CC[C@]4(C)/C(=C(\C)CC/C=C(/C)C(=O)O)CC[C@@]24C)C[C@]13CCC(=O)O
- inhibition [9]: 85%

SMILES: Nc1ccc(S(=O)(=O)N2CCN(C(=O)c3cc(O)c(O)c(O)c3)CC2)cc1
- pIC50 [10]: 6.14

SMILES: CCn1cc(C(=O)O)c(=O)c2cc(F)c(N3CCN(S(=O)(=O)c4ccc(OC)cc4)CC3)cc21
- pIC50 [11]: 7.30

SMILES: CCCCC/C=C/C=C/O[C@@]12[C@@H]([C@H]3OCO[C@@]3(C(C)=O)[C@H](OC(=O)CCCC)[C@H]1C)[C@@H]1O[C@]1(CO)[C@@H](O)[C@]1(O)C(=O)C(C)=C[C@H]12
- pIC50 [6]: 9.05

SMILES: CC1=C(C(=O)OCc2ccccc2)C(c2cccc(C(F)(F)F)c2)NC(=O)N1 (centres undefined)
- IC50 [11]: 15 µg/mL

SMILES: COc1oc(C2C/C(=C/C(C)=C/c3ccc(C(F)(F)F)cc3)CO2)c(C)c(=O)c1C (centres undefined)
- pIC50 [12]: > 7.35

SMILES: CC1=C(C(=O)OCc2ccccc2)C(c2ccc(Cl)c([N+](=O)[O-])c2)NC(=O)N1 (centres undefined)
- IC50 [11]: 15 µg/mL

SMILES: C=C(C)[C@@H]1Cc2c(cc3oc(=O)ccc3c2O)O1
- CC50 [1]: > 200000 nM

SMILES: CCCCC/C=C\C=C/O[C@@]12[C@@H]([C@H]3OCO[C@@]3(C(C)=O)[C@H](OC(C)=O)[C@H]1C)[C@@H]1O[C@]1(CO)[C@@H](O)[C@]1(O)C(=O)C(C)=C[C@H]12
- pIC50 [6]: 9.05

SMILES: C=C(CO)[C@@H]1Cc2cc3ccc(=O)oc3cc2O1
- CC50 [1]: > 200000 nM

SMILES: O=C1C[C@@H](c2ccc(O)cc2)Oc2cc(O)cc(O)c21
- inhibition [13]: 44.2%

SMILES: Cc1cc(=O)c2ccc(N=C=S)cc2o1
- pIC50 [14]: 6.00

SMILES: C=C(CP(=O)(OCC)OCC)[C@@H]1CC[C@]2(C(=O)O)CC[C@]3(C)[C@H](CC[C@@H]4[C@@]5(C)CC[C@H](OC(=O)CC(C)(C)C(=O)O)C(C)(C)[C@@H]5CC[C@]43C)[C@@H]12
- pIC50 [15]: 6.52

SMILES: CC(=O)N[C@H]1[C@H](O[C@H]2CC[C@]3(C)[C@H]4CC=C5[C@@H]6CC(C)(C)CC[C@]6(C(=O)O)CC[C@@]5(C)[C@]4(C)CC[C@H]3C2(C)C)O[C@H](CO)[C@@H](O)[C@@H]1O
- pIC50 [2]: 4.74

SMILES: C=CCOCc1cn(C2CCON2C(=O)OCc2ccccc2)c(=O)[nH]c1=O (centres undefined)
- pIC50 [7]: 8.00

SMILES: CC1(C)Oc2cc3oc(=O)ccc3cc2[C@@H](O)[C@@H]1O
- CC50 [1]: > 200000 nM

SMILES: COC(=O)/C=C/c1c(-c2cccs2)[nH]c2ccccc12
- pIC50 [16]: 6.14

SMILES: CCCCC/C=C/C=C/O[C@@]12[C@@H]([C@H]3OCO[C@@]3(C(C)=O)[C@H](OC(=O)CCCCC)[C@H]1C)[C@@H]1O[C@]1(CO)[C@@H](O)[C@]1(O)C(=O)C(C)=C[C@H]12
- pIC50 [6]: 9.05
